Broadly, the melting point is the temperature, or range, at which the solid turns liquid.

Data set [1] relates to ddY male mice. The data set can be described thus: Effect on pentobarbital sodium-induced sleeping time (loss of righting reflex). The class given is in vivo. The conditions noted are these: test compound 10 mg/kg p.o. one hour before pentobarbital-Na 25 mg/kg s.c. As for the experimental part: The test was conducted to examine influence of Compound (I) of the present invention on pentobarbital sodium-induced sleeping time, according to the method of Iyakuhin no Kaihatsu, Vol. 9, Iyakuhin no Tansaku I, “antihypnotic”, p. 220-226, Hirokawa Shoten.
For the test, ddY male mice (19-21 g body weight; Japan SLC, Inc.) were used. All test compounds were used by suspending in distilled water (Otsuka Pharmaceutical Factory, Inc.) containing 0.5 volume/weight % methylcellulose (0.5% MC: Wako Pure Chemical Industries, Ltd.). A volume of 0.1 mL was administered per 10 g body weight of mice.
Groups of seven mice were used. To the control groups were orally administrated 0.5% MC, whereas a suspension of the test compound was orally administered to the test compound administered groups. One hour after the administration, pentobarbital sodium (pentobarbital-Na: Tokyo Chemical Industry Co., Ltd., 25 mg/kg) was administered subcutaneously. Mouse placed in a recumbent position, the mouse immediately returns to a proper upright position (this is known as righting reflex). However, the administration of pentobarbital sodium eliminated the righting reflex in the control groups. The time period in which the administration of […] eliminated the righting reflex was regarded as a sleeping time. By a measurement of time disappearing righting reflex immediately after the administration, the sleeping time was determined.

The mark [2] stands for this setting: Table 5-1, groups of seven, controls 52.12 ± 5.20 (r5) and 35.56 ± 5.21 (r11).
Where [3] appears, read: Table 5-2, groups of seven, controls 40.00 ± 5.32 (r5) and 45.87 ± 4.17 (r12).

Consider `N#Cc1ccc(C(=O)Nc2nc(-c3ccco3)c(C(=O)C3CCOCC3)s2)o1` [Compound 420, 5-Cyano-N-[4-(2-furyl)-5-(tetrahydropyran-4-ylcarbonyl)-thiazol-2-yl]furan-2-carboxamide], for which the melting point was in the range of 222 to 223 °C. For the same compound, the “Sleeping time (min) Mean value ± standard deviation” value in data set [1] (setting [2]) is reported as 0.00 ± 0.00 min. In turn, `Cc1ccc(C(=O)Nc2nc(-c3ccco3)c(C(=O)C3CCOCC3)s2)cc1` [Compound 365, N-[4-(2-Furyl)-5-(tetrahydropyran-4-ylcarbonyl)thiazol-2-yl]-4-methylbenzamide] yielded a melting point of 190 to 192 °C. For the same compound, in data set [1] (setting [3]), the “Sleeping time (min) Mean value ± standard deviation” value turned out to be 0.05 ± 0.05 min. Compound `O=C(c1ccccn1)c1sc(NC(=O)C2CC2)nc1-c1ccco1` [Compound 99, N-[4-(2-Furyl)-5-(pyridin-2-ylcarbonyl)thiazol-2-yl]cyclopropanecarboxamide] had a melting point of 191 to 192 °C. In addition, in data set [1] (setting [3]), the “Sleeping time (min) Mean value ± standard deviation” value worked out at 0.05 ± 0.02 min. The compound `O=C(Nc1nc(-c2ccco2)c(C(=O)C2CCOCC2)s1)C1CC1` [Compound 361, N-[4-(2-Furyl)-5-(tetrahydropyran-4-ylcarbonyl)thiazol-2-yl]cyclopropanecarboxamide] showed a melting point of 182 to 183 °C. In addition, the “Sleeping time (min) Mean value ± standard deviation” value in data set [1] (setting [2]) worked out at 1.65 ± 1.40 min. Take `O=C(Nc1nc(-c2ccco2)c(C(=O)C2CCOCC2)s1)c1ccncc1` [Compound 360, N-[4-(2-Furyl)-5-(tetrahydropyran-4-ylcarbonyl)thiazol-2-yl]pyridine-4-carboxamide]: the melting point was in the range of 202 to 209 °C. In addition, in data set [1] (setting [3]), the “Sleeping time (min) Mean value ± standard deviation” value was determined as 0.03 ± 0.02 min. As for `O=C(Nc1nc(-c2ccco2)c(C(=O)C2CCOCC2)s1)c1ccc(F)cc1` [Compound 373, 4-Fluoro-N-[4-(2-furyl)-5-(tetrahydropyran-4-ylcarbonyl)-thiazol-2-yl]benzamide], the melting point lay within 131 to 132 °C. In data set [1] (setting [3]), the “Sleeping time (min) Mean value ± standard deviation” value is listed as 0.03 ± 0.02 min. Consider `O=C(Nc1nc(-c2ccco2)c(C(=O)C2CCOCC2)s1)c1ccco1` [Compound 416, N-[4-(2-Furyl)-5-(tetrahydropyran-4-ylcarbonyl)thiazol-2-yl]furan-2-carboxamide], for which the melting point was in the range of 196 to 198 °C. Moreover, the “Sleeping time (min) Mean value ± standard deviation” value in data set [1] (setting [2]) worked out at 0.06 ± 0.06 min. In turn, `O=C(Nc1nc(-c2ccco2)c(C(=O)C2CCCC2)s1)c1ccncc1` [Compound 336, N-[5-(Cyclopentylcarbonyl)-4-(2-furyl)thiazol-2-yl]pyridine-4-carboxamide] gave a melting point of 168 to 181 °C. Besides, the “Sleeping time (min) Mean value ± standard deviation” value in data set [1] (setting [3]) was 1.60 ± 1.56 min.

`O=C(Nc1nc(-c2ccco2)c(C(=O)c2ccccn2)s1)c1ccco1` [Compound 142, N-[4-(2-Furyl)-5-(pyridin-2-ylcarbonyl)thiazol-2-yl]furan-2-carboxamide] displayed a melting point of 184 to 185 °C. In addition, in data set [1] (setting [3]), the “Sleeping time (min) Mean value ± standard deviation” value was 4.52 ± 4.41 min. In turn, `O=C(Nc1nc(-c2ccco2)c(C(=O)C2CCOCC2)s1)c1ccc(Cl)cc1` [Compound 376, 4-Chloro-N-[4-(2-furyl)-5-(tetrahydropyran-4-ylcarbonyl)-thiazol-2-yl]benzamide] displayed a melting point of 204 to 206 °C. The “Sleeping time (min) Mean value ± standard deviation” value in data set [1] (setting [2]) was 0.00 ± 0.00 min. For the compound `Cc1ncc(C(=O)Nc2nc(-c3ccco3)c(C(=O)c3ccccn3)s2)cn1` [Compound 136, N-[4-(2-Furyl)-5-(pyridin-2-ylcarbonyl)thiazol-2-yl]-2-methylpyrimidine-5-carboxamide], the melting point was 255 to 265 °C (dec.). In addition, in data set [1] (setting [2]), the “Sleeping time (min) Mean value ± standard deviation” value worked out at 1.89 ± 1.81 min. `O=C(Nc1nc(-c2ccco2)c(C(=O)c2ccccn2)s1)c1ccncc1` [Compound 95, N-[4-(2-Furyl)-5-(pyridin-2-ylcarbonyl)thiazol-2-yl]pyridine-4-carboxamide] showed a melting point of 218 to 227 °C. The “Sleeping time (min) Mean value ± standard deviation” value in data set [1] (setting [2]) is 0.45 ± 0.45 min.

On to `N#Cc1ccc(C(=O)Nc2nc(-c3ccco3)c(C(=O)c3ccccn3)s2)cc1` [Compound 114, 4-Cyano-N-[4-(2-furyl)-5-(pyridin-2-ylcarbonyl)thiazol-2-yl]benzamide], for which the melting point was 232 to 235 °C. Further, the “Sleeping time (min) Mean value ± standard deviation” value in data set [1] (setting [3]) turned out to be 0.63 ± 0.53 min. In the case of `O=C(Nc1nc(-c2ccco2)c(C(=O)C2CCOCC2)s1)c1ccc(Cl)nc1` [Compound 407, 2-Chloro-N-[4-(2-furyl)-5-(tetrahydropyran-4-ylcarbonyl)-thiazol-2-yl]pyridine-5-carboxamide], the melting point was 233 to 235 °C. Moreover, the “Sleeping time (min) Mean value ± standard deviation” value in data set [1] (setting [2]) is given as 0.00 ± 0.00 min. On to `COC(=O)Nc1nc(-c2ccco2)c(C(=O)c2ccccn2)s1` [Compound 157, Methyl N-[4-(2-furyl)-5-(pyridin-2-ylcarbonyl)thiazol-2-yl]carbamate], for which the “Sleeping time (min) Mean value ± standard deviation” value in data set [1] (setting [3]) turned out to be 9.39 ± 5.68 min. For `O=C(Nc1nc(-c2ccco2)c(-c2ccncc2)s1)c1ccoc1` [Compound 8, N-[4-(2-Furyl)-5-(4-pyridyl)thiazol-2-yl]furan-3-carboxamide], the “Sleeping time (min) Mean value ± standard deviation” value in data set [1] (setting [2]) is listed as 4.16 ± 4.16 min. `COc1cccc(C(=O)Nc2nc(-c3ccco3)c(C(=O)C3CCOCC3)s2)c1` [Compound 367, N-[4-(2-Furyl)-5-(tetrahydropyran-4-ylcarbonyl)thiazol-2-yl]-3-methoxybenzamide]: the melting point is 198 to 200 °C. For the same compound, the “Sleeping time (min) Mean value ± standard deviation” value in data set [1] (setting [2]) was 0.10 ± 0.10 min.

The values above are taken from patent US7928098B2, “Therapeutic and/or preventive agents for a sleep disorder” (Kyowa Hakko Kirin Co., Ltd., priority 2005, dated 2011).
